In PubChem BioAssay (NCI):
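In this assay, cells in 96-well plates receive the compound at five concentrations for 48 hours. Endpoints are linearly interpolated between the surrounding concentrations. GI50 = concentration required for 50% inhibition of growth. Definition used: TGI = concentration required for complete inhibition of growth.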 *1 amine or outer side, *2 acyl side, *3 side chain or, on linkers, in order; H or OH if unused. Where a SMILES comes first, the peptide text is derived from it. [ ]: non-standard residue; d: D form. The star is where a group is joined. X11 = C/C=C/CC(C)C(O)[C@H](N[*:1])C(=O)[*:2]; Decanoyl = CCCCCCCCCC(=O)*; Leu(ol) = CC(C)C[C@H](N)CO; Aib = CC(C)(N)C(=O)O

How the values were obtained:
Test in all cases: NCI-60 cell line screen, 48 h
[1] = system: UACC-62 melanoma
[2] = system: NCI/ADR-RES ovarian
[3] = system: BT-549 breast
[4] = system: UACC-257 melanoma
[5] = system: TK-10 renal
[6] = system: MOLT-4 leukemia
[7] = system: DU-145 prostate
[8] = system: M14 melanoma
[9] = system: KM12 colon
[10] = system: CCRF-CEM leukemia
[11] = system: IGROV1 ovarian
[12] = system: MDA-MB-435
[13] = system: COLO 205 colon
[14] = system: K-562 leukemia
[15] = system: SF-268 CNS
[16] = system: HOP-62 NSCLC
[17] = system: SK-MEL-28 melanoma
[18] = system: SK-OV-3 ovarian
[19] = system: SN12C renal
[20] = system: OVCAR-3 ovarian
[21] = system: EKVX NSCLC
[22] = system: A549 NSCLC
[23] = system: NCI-H226 lung
[24] = system: HT29 colon
[25] = system: HCT-15 colon
[26] = system: SF-295 CNS
[27] = system: ACHN renal
[28] = system: OVCAR-8 ovarian
[29] = system: UO-31 renal
[30] = system: SR leukemia
[31] = system: HL-60(TB) leukemia
[32] = system: SW-620 colon
[33] = system: LOX IMVI melanoma
[34] = system: MCF7 breast
[35] = system: SK-MEL-5 melanoma
[36] = system: NCI-H522 lung
[37] = system: NCI-H460 lung
[38] = system: RXF 393 renal
[39] = system: HCC-2998 colon
[40] = system: PC-3 prostate
[41] = system: T-47D breast
[42] = system: SF-539 CNS
[43] = system: MALME-3M melanoma
[44] = system: CAKI-1 renal
[45] = system: A498 renal
[46] = system: 786-0 renal
[47] = system: SK-MEL-2 melanoma
[48] = system: OVCAR-4 ovarian
[49] = system: U251 CNS
[50] = system: MDA-MB-231 breast
[51] = system: NCI-H23 lung
[52] = system: RPMI-8226 leukemia
[53] = system: HOP-92 NSCLC
[54] = system: SNB-19 CNS
[55] = system: HCT-116 colon
[56] = system: HS 578T breast
[57] = system: SNB-75 CNS
[58] = system: OVCAR-5 ovarian

SMILES: C/C=C/CC(C)C(O)[C@H](NC(=O)[C@@H]1CCCN1C(=O)C(C)(C)NC(=O)CCCCCCCCC)C(=O)NC(C)(C)C(=O)N[C@@H](CCC(N)=O)C(=O)N[C@H](CCC(N)=O)C(=O)NC(C)(C)C(=O)NC(C)(C)C(=O)N[C@@H](CCC(N)=O)C(=O)N[C@H](CC(C)C)C(=O)N[C@H](CO)CC(C)C (stereo partly drawn) (Decanoyl-[Aib]P[X11][Aib]Q[dQ][Aib][Aib]Q[dL][Leu(ol)])
- GI50 [1]: 1610 nM
- TGI [1]: 3.19 µM
- GI50 [2]: 2390 nM
- TGI [2]: 6.86 µM
- GI50 [3]: 1840 nM
- TGI [3]: 3.37 µM
- GI50 [4]: 1540 nM
- TGI [4]: 3.09 µM
- GI50 [5]: 2270 nM
- TGI [5]: 5.57 µM
- GI50 [6]: 2100 nM
- TGI [6]: 6.44 µM
- GI50 [7]: 1460 nM
- TGI [7]: 2850 nM
- GI50 [8]: 1690 nM
- TGI [8]: 3.35 µM
- GI50 [9]: 1840 nM
- TGI [9]: 3.68 µM
- GI50 [10]: 1870 nM
- TGI [10]: 4 µM
- GI50 [11]: 2300 nM
- TGI [11]: 7.23 µM
- GI50 [12]: 1680 nM
- TGI [12]: 3.07 µM
- GI50 [13]: 1610 nM
- TGI [13]: 3.33 µM
- GI50 [14]: 1660 nM
- TGI [14]: 4.85 µM
- GI50 [15]: 1750 nM
- TGI [15]: 3.7 µM
- GI50 [16]: 1640 nM
- TGI [16]: 3.68 µM
- GI50 [17]: 1690 nM
- TGI [17]: 3.1 µM
- GI50 [18]: 3.11 µM
- TGI [18]: 13.3 µM
- GI50 [19]: 1930 nM
- TGI [19]: 5.35 µM
- GI50 [20]: 1910 nM
- TGI [20]: 3.95 µM
- GI50 [21]: 1610 nM
- TGI [21]: 3.71 µM
- GI50 [22]: 2280 nM
- GI50 [23]: 1640 nM
- TGI [23]: 3.97 µM
- GI50 [24]: 2570 nM
- GI50 [25]: 2440 nM
- TGI [25]: 7.08 µM
- GI50 [26]: 1390 nM
- TGI [26]: 2900 nM
- GI50 [27]: 2500 nM
- TGI [27]: 7.43 µM
- GI50 [28]: 1500 nM
- TGI [28]: 3.76 µM
- GI50 [29]: 1590 nM
- TGI [29]: 4.22 µM
- GI50 [30]: 1950 nM
- TGI [30]: 8.47 µM
- GI50 [31]: 2200 nM
- TGI [31]: 5.22 µM
- GI50 [32]: 2380 nM
- TGI [32]: 7.11 µM
- GI50 [33]: 1720 nM
- TGI [33]: 3.45 µM
- GI50 [34]: 1630 nM
- TGI [34]: 3.53 µM
- GI50 [35]: 1720 nM
- TGI [35]: 3.16 µM
- GI50 [36]: 1670 nM
- TGI [36]: 3.4 µM
- GI50 [37]: 1530 nM
- TGI [37]: 3.06 µM
- GI50 [38]: 2140 nM
- TGI [38]: 3.98 µM
- GI50 [39]: 2130 nM
- TGI [39]: 5.25 µM
- GI50 [40]: 1140 nM
- TGI [40]: 3.18 µM
- GI50 [41]: 2090 nM
- TGI [41]: 5.67 µM
- GI50 [42]: 1620 nM
- TGI [42]: 3000 nM
- GI50 [43]: 1400 nM
- TGI [43]: 2760 nM
- GI50 [44]: 2210 nM
- TGI [44]: 6.09 µM
- GI50 [45]: 1990 nM
- TGI [45]: 4.07 µM
- GI50 [46]: 1760 nM
- TGI [46]: 3.33 µM
- GI50 [47]: 1860 nM
- TGI [47]: 4.22 µM
- GI50 [48]: 2950 nM
- GI50 [49]: 1460 nM
- TGI [49]: 2970 nM
- GI50 [50]: 1630 nM
- TGI [50]: 3.1 µM
- GI50 [51]: 2090 nM
- TGI [51]: 5.91 µM
- GI50 [52]: 1850 nM
- TGI [52]: 4.26 µM
- GI50 [53]: 1660 nM
- TGI [53]: 3.97 µM
- GI50 [54]: 1550 nM
- TGI [54]: 3.07 µM
- GI50 [55]: 2210 nM
- TGI [55]: 5.16 µM
- GI50 [56]: 1540 nM
- TGI [56]: 3.28 µM
- GI50 [57]: 1740 nM
- TGI [57]: 3.22 µM
- GI50 [58]: 1870 nM
- TGI [58]: 3.96 µM
